Assay results as given in patent US20130252930A1 (BIOMARIN PHARMACEUTICAL INC., priority 2010, published 2013).
pIC50: −log10 of the molar value. Like-named read-outs stand apart in the source and are kept apart here.

What was measured:
[1] = target: T1, CYP17 (human testicular microsome) (Homo sapiens, UniProt P05093); assay: CYP17 enzymatic assay (% inhibition at 1 nM) (Biological Example 12); type: biochemical
T1 construct: using microsomal fraction from human testis (Celsis Cat #S00110) as the enzyme source; tissue Celsis S00110; host or cells: human testis microsomal fraction
T1 sequence (P05093 1-508): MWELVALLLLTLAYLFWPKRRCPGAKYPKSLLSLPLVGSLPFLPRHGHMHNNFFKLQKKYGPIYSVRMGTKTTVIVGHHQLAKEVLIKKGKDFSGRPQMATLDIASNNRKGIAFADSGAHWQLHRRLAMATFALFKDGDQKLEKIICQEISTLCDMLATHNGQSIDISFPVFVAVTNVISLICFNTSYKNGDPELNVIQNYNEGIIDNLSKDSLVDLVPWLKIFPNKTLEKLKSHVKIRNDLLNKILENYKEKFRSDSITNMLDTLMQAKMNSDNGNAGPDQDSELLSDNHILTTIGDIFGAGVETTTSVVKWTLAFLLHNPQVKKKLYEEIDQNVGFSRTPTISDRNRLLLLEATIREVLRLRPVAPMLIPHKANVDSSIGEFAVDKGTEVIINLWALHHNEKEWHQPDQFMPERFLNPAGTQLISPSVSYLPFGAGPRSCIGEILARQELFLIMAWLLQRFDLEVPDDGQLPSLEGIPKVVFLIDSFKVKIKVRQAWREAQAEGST

[2] = Human liver microsome stability assay (Biological Example 8b); details: liver microsomes, pH 7.4
[3] = target: T2, Cyp21 enzyme (Human HEK 293-Cyp21 stable transfected cells) (Homo sapiens, UniProt P08686); assay: CYP21-HEK293 enzymatic assay (IC50) (Biological Example 11); type: cell-based; details: HEK 293-Cyp21 cells
T2 construct: expressed in transfected cells
T2 sequence (P08686 1-495): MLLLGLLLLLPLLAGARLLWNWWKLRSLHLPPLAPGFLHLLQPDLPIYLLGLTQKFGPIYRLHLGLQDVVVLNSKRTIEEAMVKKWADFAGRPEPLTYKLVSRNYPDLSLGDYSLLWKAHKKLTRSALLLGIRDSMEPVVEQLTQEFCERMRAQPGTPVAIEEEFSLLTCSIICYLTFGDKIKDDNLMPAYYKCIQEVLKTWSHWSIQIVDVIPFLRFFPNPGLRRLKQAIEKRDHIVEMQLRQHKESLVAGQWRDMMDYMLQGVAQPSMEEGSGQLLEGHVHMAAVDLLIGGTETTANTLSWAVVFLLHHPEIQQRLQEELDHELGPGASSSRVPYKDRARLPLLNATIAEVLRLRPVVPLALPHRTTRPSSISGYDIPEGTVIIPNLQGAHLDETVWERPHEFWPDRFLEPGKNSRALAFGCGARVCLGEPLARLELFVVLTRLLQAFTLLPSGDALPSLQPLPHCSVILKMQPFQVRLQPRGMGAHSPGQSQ

CYP17 (H295R cells) = target: T3, CYP17 (H295R cells) (Homo sapiens, UniProt P05093); assay: CYP17 cellular assay (IC50), testosterone in H295R cells (Biological Example 7); type: cell-based; details: H295R cells
T3 construct: endogenous in cells; host or cells: H295R cells
T3 sequence (P05093 1-508): T1 sequence (P05093 1-508)
In short: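 H295R cells cultured 24 h, then exposed to compound at 100, 10, 1, 0.1 nM final in serum-free DMEM/F-12 with ITS+ and 0.1% methanol for 24 h at 37 °C. Medium testosterone measured by ELISA and plotted against compound concentration.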

[4] = target: T1, CYP17 (human testicular microsome); assay: CYP17 enzymatic assay (IC50) (Biological Example 4); type: biochemical
[5] = compound at 1 nM, read-out: Biological Example No. 12: CYP17 enzymatic assay % inhibition at 1 nM
[6] = read-out: Biological Example No. 11: CYP21-HEK293 enzymatic assay IC50
[7] = testosterone, read-out: Biological Example No. 7: CYP17 cellular assay IC50
[8] = human testicular microsome, read-out: Biological Example No. 4: CYP17 enzymatic assay IC50

inhibition at 0.001 µM [1, 5] [%] | pIC50 [3, 6] | pIC50 (CYP17 (H295R cells); [7]) | pIC50 [4, 8] | SMILES | inhibition at 0.001 µM ([1]; compound at 1 nM, read-out: CYP17 enzymatic assay % inhibition at 1 nM (Biological Example No. 12)) [%] | half-life at 1 μM [2] [min] | pIC50 ([3]; read-out: CYP21-HEK293 enzymatic assay IC50 (Biological Example No. 11)) | pIC50 (CYP17 (H295R cells); testosterone, read-out: CYP17 cellular assay IC50 (Biological Example No. 7)) | pIC50 ([4]; human testicular microsome, read-out: CYP17 enzymatic assay IC50 (Biological Example No. 4)) | pIC50 [4] | inhibition at 0.001 µM ([1]; 1 nM compound, DHEA by ELISA, read-out: Biological Example No. 12: CYP17 percent inhibition at 1 nM) [%] | pIC50 ([3]; DOC by ELISA, read-out: Biological Example No. 11: CYP21-HEK293 IC50) | pIC50 (CYP17 (H295R cells); testosterone by ELISA, 24 hours, read-out: Biological Example No. 7: CYP17 cellular assay IC50) | pIC50 ([4]; human testicular microsome, DHEA by ELISA, read-out: Biological Example No. 4: CYP17 enzymatic assay IC50)
– | – | – | – | C[C@]12CCC(=O)C=C1C1(CC1)C[C@@H]1[C@@H]2CC[C@]2(C)C(c3cccnc3)=CC[C@@H]12 [Compound 313, (10R,13S)-10,13-dimethyl-17-(pyridin-3-yl)-1,7,8,9,10,11,12,13,14,15-decahydrospiro[cyclopenta[a]phenanthrene-6,1′-cyclopropan]-3(2H)-one] | > 50 | 1 to 50 | > 8.00 | > 7.82 | > 7.96 | – | – | – | – | –
> 50 | > 8.00 | > 7.82 | > 7.96 | CC1CC2C(CC[C@]3(C)C(c4cccnc4)=CCC23)[C@@]2(C)CCNC(=O)C=C12 (stereo partly drawn) [Compound 368, (5aR,7aS)-5a,7a,12-trimethyl-8-(pyridin-3-yl)-3,4,5,5a,5b,6,7,7a,10,10a,11,12-dodecahydrocyclopenta[5,6]naphtho[1,2-d]azepin-2(10bH)-one] | – | 1 to 50 | – | – | – | – | – | – | – | –
10 to 50 | > 8.00 | > 7.82 | > 7.96 | C[C@]12CCNC(=O)C=C1C1(CC1)CC1C2CC[C@]2(C)C(c3cccnc3)=CCC12 (stereo partly drawn) [Compound 369, (5aR,7aS)-5a,7a-dimethyl-8-(pyridin-3-yl)-3,4,5,5a,5b,6,7,7a,10,10a,10b,11-dodecahydro-2H-spiro[cyclopenta[5,6]naphtho[1,2-d]azepine-12,1′-cyclopropan]-2-one] | – | 1 to 50 | – | – | – | – | – | – | – | –
> 50 | < 6.00 | > 7.82 | > 7.96 | C[C@]12CCNC(=O)C=C1C1CC1[C@@H]1[C@@H]2CC[C@]2(C)C(c3cncc(F)c3)=CC[C@@H]12 (stereo partly drawn) [Compound 388, (5aR,7aS)-8-(5-fluoropyridin-3-yl)-5a,7a-dimethyl-3,4,5,5a,5b,6,7,7a,10,10a,10b,10c,11,11a-tetradecahydro-2H-cyclopenta[5,6]cyclopropa[3,4]naphtho[1,2-d]azepin-2-one] | – | 1 to 50 | – | – | – | – | – | – | – | –
– | – | – | – | C[C@]12CCC(=O)C=C1C(F)CC1C2CC[C@]2(C)C(c3cccnc3)=CCC12 (stereo partly drawn) [D, (10R,13S)-6-fluoro-10,13-dimethyl-17-(pyridin-3-yl)-6,7,8,9,10,11,12,13,14,15-decahydro-1H-cyclopenta[a]phenanthren-3(2H)-one, reference compound] | – | 1 to 50 | – | – | – | – | > 50 | < 6.00 | > 7.82 | > 7.96

SMILES | inhibition at 0.001 µM [1, 5] [%] | pIC50 [3, 6] | pIC50 (CYP17 (H295R cells); [7]) | pIC50 [4, 8] | inhibition at 0.001 µM ([1]; compound at 1 nM, read-out: CYP17 enzymatic assay % inhibition at 1 nM (Biological Example No. 12)) [%] | half-life at 1 μM [2] [min] | pIC50 ([3]; read-out: CYP21-HEK293 enzymatic assay IC50 (Biological Example No. 11)) | pIC50 (CYP17 (H295R cells); testosterone, read-out: CYP17 cellular assay IC50 (Biological Example No. 7)) | pIC50 ([4]; human testicular microsome, read-out: CYP17 enzymatic assay IC50 (Biological Example No. 4)) | pIC50 [4] | inhibition at 0.001 µM ([1]; 1 nM compound, DHEA by ELISA, read-out: Biological Example No. 12: CYP17 percent inhibition at 1 nM) [%] | pIC50 ([3]; DOC by ELISA, read-out: Biological Example No. 11: CYP21-HEK293 IC50) | pIC50 (CYP17 (H295R cells); testosterone by ELISA, 24 hours, read-out: Biological Example No. 7: CYP17 cellular assay IC50) | pIC50 ([4]; human testicular microsome, DHEA by ELISA, read-out: Biological Example No. 4: CYP17 enzymatic assay IC50)
C[C@]12C=CC(=O)C=C1C1(CC1)C[C@@H]1[C@@H]2CC[C@]2(C)C(c3cccnc3)=CC[C@@H]12 [Compound 316, (10R,13S)-10,13-dimethyl-17-(pyridin-3-yl)-7,8,9,11,12,13,14,15-octahydrospiro[cyclopenta[a]phenanthrene-6,1′-cyclopropan]-3(10H)-one] | 10 to 50 | > 8.00 | > 7.82 | – | – | 1 to 50 | – | – | – | > 7.96 | – | – | – | –
C[C@]12CC[C@H]3[C@@H](CCC4=CC(=O)CC[C@@]43C)C1=CC=C2c1cncc(F)c1 [Compound 352, (10R,13S)-17-(5-fluoropyridin-3-yl)-10,13-dimethyl-6,7,8,9,10,11,12,13-octahydro-1H-cyclopenta[a]phenanthren-3(2H)-one] | > 50 | 7.00 to 8.00 | > 7.82 | > 7.96 | – | 1 to 50 | – | – | – | – | – | – | – | –
